Columns and labels:
[1] = biological target: T1, Amine oxidase [flavin-containing] A (Homo sapiens, UniProt P21397); assay: biochemical
T1 sequence (P21397 whole entry): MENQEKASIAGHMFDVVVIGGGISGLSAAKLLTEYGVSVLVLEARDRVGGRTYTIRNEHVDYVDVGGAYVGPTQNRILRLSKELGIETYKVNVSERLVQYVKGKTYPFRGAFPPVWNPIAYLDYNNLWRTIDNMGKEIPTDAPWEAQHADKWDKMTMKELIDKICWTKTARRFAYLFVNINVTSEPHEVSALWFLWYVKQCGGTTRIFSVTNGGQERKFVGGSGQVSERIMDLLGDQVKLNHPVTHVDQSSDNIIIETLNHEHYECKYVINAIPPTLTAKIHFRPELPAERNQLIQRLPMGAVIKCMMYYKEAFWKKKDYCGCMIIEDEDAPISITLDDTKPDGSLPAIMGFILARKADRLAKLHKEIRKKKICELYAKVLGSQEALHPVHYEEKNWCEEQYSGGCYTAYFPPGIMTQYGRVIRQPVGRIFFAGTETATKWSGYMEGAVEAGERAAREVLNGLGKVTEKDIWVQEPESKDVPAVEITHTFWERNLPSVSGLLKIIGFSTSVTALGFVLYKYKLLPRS
Description: Inhibition of recombinant human MAOA expressed in baculovirus infected BTI insect cells using beetle luciferin as substrate after 1 hr by MAO-Glo assay

in vitro [2] = settings: human, HCT8 cells
Description: Cytotoxicity against human HCT8 cells assessed as inhibition of cell proliferation at 100 uM after 4 hrs by MTT assay relative to control

in vitro [3] = settings: human, SW620 cells
Description: Cytotoxicity against human SW620 cells assessed as inhibition of cell proliferation at 100 uM after 4 hrs by MTT assay relative to control

[4] = biological target: T2, Amine oxidase [flavin-containing] B (Homo sapiens, UniProt P27338); assay: biochemical
T2 sequence (P27338 whole entry): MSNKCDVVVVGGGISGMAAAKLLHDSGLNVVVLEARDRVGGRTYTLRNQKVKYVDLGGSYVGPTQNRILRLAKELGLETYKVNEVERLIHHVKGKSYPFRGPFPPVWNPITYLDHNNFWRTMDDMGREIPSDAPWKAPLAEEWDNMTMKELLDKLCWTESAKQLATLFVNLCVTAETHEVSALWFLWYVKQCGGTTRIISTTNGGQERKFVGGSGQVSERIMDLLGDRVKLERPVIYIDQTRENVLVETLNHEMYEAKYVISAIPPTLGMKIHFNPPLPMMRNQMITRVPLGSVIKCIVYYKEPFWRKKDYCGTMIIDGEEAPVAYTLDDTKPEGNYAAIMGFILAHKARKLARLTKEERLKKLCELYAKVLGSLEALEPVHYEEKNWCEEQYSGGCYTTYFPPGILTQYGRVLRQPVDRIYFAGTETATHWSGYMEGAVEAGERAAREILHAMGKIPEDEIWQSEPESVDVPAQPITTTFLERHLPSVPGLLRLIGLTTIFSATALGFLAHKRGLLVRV
Description: Inhibition of recombinant human MAOB expressed in baculovirus infected BTI insect cells using beetle luciferin as substrate after 1 hr by MAO-Glo assay

[5] = biological target: Lysine-specific histone demethylase 1A (Homo sapiens, UniProt O60341)
Description: Inhibition of human N-terminal GST-tagged LSD1 isoform2 (158 to end residues) expressed in Escherichia coli using methylated peptide as substrate preincubated with substrate for 15 mins followed by enzyme addition and measured after 30 mins by amplex red and horseradish peroxidase based fluorescence assay

Row | IC50 [1] [µM] | inhibition at 4 h, 100 µM (in vitro [2]) [%] | inhibition at 4 h, 100 µM (in vitro [3]) [%] | IC50 [4] [µM] | IC50 [5] [µM] | SMILES
1 | > 200 | 35 | 35 | > 200 | – | O=C(CCC1NC(=O)NC1=O)NCCc1c[nH]c2ccccc12 (stereo not given)
2 | – | – | – | – | > 100 | Cc1nc(-c2ccc(CN(C)Cc3cccc4cnccc34)cc2)[nH]c(=O)c1F

Source: ChEMBL document CHEMBL4330120, “Identification of selective and reversible LSD1 inhibitors with anti-metastasis activity by high-throughput docking” (Bioorg Med Chem Lett, 2019)
